According to ChEMBL document CHEMBL1138798, “A docking score function for estimating ligand-protein interactions: application to acetylcholinesterase inhibition” (J Med Chem, 2004):

How the values were obtained:
Acetylcholinesterase [1] = biological target: T1, Acetylcholinesterase (Homo sapiens, UniProt P22303)
Description: Binding affinity towards Acetylcholinesterase

Acetylcholinesterase [2] = biological target: T1, Acetylcholinesterase; remark: listed apart in the source
Description: Inhibitory activity against Acetylcholinesterase enzyme using human AChE assay

T1 sequence (P22303 whole entry): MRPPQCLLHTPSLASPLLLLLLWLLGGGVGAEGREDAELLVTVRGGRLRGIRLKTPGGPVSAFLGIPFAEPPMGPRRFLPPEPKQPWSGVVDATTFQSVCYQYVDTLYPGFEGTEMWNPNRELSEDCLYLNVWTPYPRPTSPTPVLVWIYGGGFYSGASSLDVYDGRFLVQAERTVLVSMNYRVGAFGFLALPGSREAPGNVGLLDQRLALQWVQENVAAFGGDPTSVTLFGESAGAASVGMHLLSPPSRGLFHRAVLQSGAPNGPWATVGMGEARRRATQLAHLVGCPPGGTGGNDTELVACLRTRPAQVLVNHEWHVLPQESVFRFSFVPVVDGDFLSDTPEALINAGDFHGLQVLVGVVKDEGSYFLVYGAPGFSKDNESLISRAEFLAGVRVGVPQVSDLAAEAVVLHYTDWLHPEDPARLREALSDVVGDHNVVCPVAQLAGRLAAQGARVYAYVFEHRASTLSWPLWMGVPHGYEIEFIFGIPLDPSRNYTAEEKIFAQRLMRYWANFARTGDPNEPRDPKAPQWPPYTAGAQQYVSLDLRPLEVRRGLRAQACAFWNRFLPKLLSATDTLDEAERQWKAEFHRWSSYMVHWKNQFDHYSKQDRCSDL

Structure (SMILES) | Ki (Acetylcholinesterase [1]) [nM] | IC50 (Acetylcholinesterase [2]) [nM]
COc1cc2c(cc1OC)C(=O)C(C1CC[N+](C)(Cc3ccccc3)CC1)=C2 (stereo unspecified) | 251 | 250
COc1cc2cc(C(=O)C3CC[N+](C)(Cc4ccccc4)CCC3OC)sc2cc1OC (stereo unspecified) | 120 | 120
COc1cc2c(cc1OC)SC(C(=O)CC1C=CC[N+](C)(Cc3ccccc3)CC1)C2 (stereo unspecified) | 759 | 750
COc1cc2cc(C(=O)C3CCC[N+](C)(Cc4ccccc4)CC3)sc2cc1OC (stereo unspecified) | 7.94 | 8
CCOCC[n+]1ccc(CCC(=O)C2Cc3cc(OC)c(OC)cc3S2)cc1 (stereo unspecified) | 7.08 | 7
CCC[n+]1ccc(CCC(=O)C2Cc3cc(OC)c(OC)cc3S2)cc1 (stereo unspecified) | 2570 | 2570
COc1cc2c(cc1OC)SC(CC1CC[N+](C)(Cc3ccccc3)CC1)C2 (stereo unspecified) | 30200 | 30000
COc1cc2c(cc1OC)SC(C(=O)CC(O)C1CC[N+](C)(Cc3ccccc3)CC1)C2 (stereo unspecified) | 191 | 190
COc1cc2cc(C3CC[N+](C)(Cc4ccccc4)CC3O)sc2cc1OC (stereo unspecified) | 19500 | 19600
COc1cc2c(cc1OC)SC(C(=O)CCc1cc[n+](Cc3ccc(F)cc3)cc1)C2 (stereo unspecified) | 2.57 | 2.6
COc1cc2cc(C(=O)C3=CC[N+](C)(Cc4ccccc4)CC3)sc2cc1OC (stereo unspecified) | 525 | 520
COc1cc2cc(C(=O)C3CCC[N+](C)(CC#N)CC3)sc2cc1OC (stereo unspecified) | 1000 | 1000
COC(=O)C[N+]1(C)CCC(CCC(=O)C2Cc3cc(OC)c(OC)cc3S2)CC1 (stereo unspecified) | 53.7 | 54
CC[n+]1ccc(CCC(=O)C2Cc3cc(OC)c(OC)cc3S2)cc1 (stereo unspecified) | 282 | 280
COc1cc2onc(CCC3CCN(Cc4ccccc4)CC3)c2cc1C | 5.75 | 5.8
C=CC[n+]1ccc(CCC(=O)C2Cc3cc(OC)c(OC)cc3S2)cc1 (stereo unspecified) | 219 | 6.27
COc1cc2c(cc1OC)SC(C(=O)CCc1cc[n+](CC3CC3)cc1)C2 (stereo unspecified) | 110 | 110
COCC[n+]1ccc(CCC(=O)C2Cc3cc(OC)c(OC)cc3S2)cc1 (stereo unspecified) | 30.2 | 30
COc1cc2cc(C3=CC[N+](C)(Cc4ccccc4)CC3)sc2cc1OC (stereo unspecified) | 2690 | 2670
C[N+]1(Cc2ccccc2)CCC(CCC(=O)c2ccc3c(c2)OCO3)CC1 (stereo unspecified) | 41.7 | 41.5
C[N+]1(Cc2ccccc2)CCC(CCC(=O)c2ccc3c(c2)CCCCO3)CC1 (stereo unspecified) | 138 | 
O=C1Cc2cc3onc(CCC4CCN(Cc5ccccc5)CC4)c3cc2N1 | 0.955 | 
O=C1CCc2cc3c(CCC4CCN(Cc5ccccc5)CC4)noc3cc2N1 | 0.575 | 

Structure (SMILES) | Ki (Acetylcholinesterase [1]) [nM] | IC50 (Acetylcholinesterase [2]) [nM]
Brc1ccc2c(CCC3CCN(Cc4ccccc4)CC3)noc2c1 | 50.1 | 
COc1cc2cc(C(=O)C3CC[N+](C)(Cc4ccccc4)CCC3O)sc2cc1OC (stereo unspecified) | 42.7 | 43
COc1cc2cc(C(=O)CC3CCCC[N+](C)(Cc4ccccc4)CC3)sc2cc1OC (stereo unspecified) | 110 | 110
COc1cc2c(cc1OC)SC(C(=O)CCc1cc[n+](Cc3ccsc3)cc1)C2 (stereo unspecified) | 6.03 | 6
O=C(CCc1cc[n+](Cc2ccccc2)cc1)c1ccc2c(c1)OCO2 | 240 | 240
COCC[N+]1(C)CCCC(C(=O)c2cc3cc(OC)c(OC)cc3s2)CC1 (stereo unspecified) | 52.5 | 53
COc1cc2cc(C(=O)C3CCC[N+](C)(CC(=O)OC(C)(C)C)CC3)sc2cc1OC (stereo unspecified) | 79.4 | 79
COc1cc2c(cc1OC)SC(C(=O)CCc1cc[n+](CC3CCC3)cc1)C2 (stereo unspecified) | 39.8 | 40
COc1cc2c(cc1OC)SC(C(=O)CCc1cc[n+](C)cc1)C2 (stereo unspecified) | 891 | 900
CN1C(=O)Cc2cc3onc(CCC4CCN(Cc5ccccc5)CC4)c3cc21 | 0.479 | 0.48
COc1cc2cc(C(=O)CCC3CC[N+](C)(Cc4ccccc4)CC3)n(C)c2cc1OC (stereo unspecified) | 120 | 
Cc1ccc2onc(CCC3CCN(Cc4ccccc4)CC3)c2c1 | 7.76 | 
COc1cc2c(cc1OC)SC(C(=O)CCc1cc[n+](Cc3coc([N+](=O)[O-])c3)cc1)C2 (stereo unspecified) | 4.47 | 4.5
COc1cc2cc(C(=O)C3CCC[N+](C)(Cc4ccc([N+](=O)[O-])o4)CC3)sc2cc1OC (stereo unspecified) | 32.4 | 32
C[N+]1(Cc2ccccc2)CCC(CCC(=O)c2ccc3c(c2)OCCO3)CC1 (stereo unspecified) | 100 | 
Cc1cc(C(=O)CCC2CC[N+](C)(Cc3ccccc3)CC2)nn1-c1ccccc1 (stereo unspecified) | 21.9 | 
COc1ccc2cc(C(=O)CCC3CC[N+](C)(Cc4ccccc4)CC3)ccc2c1 (stereo unspecified) | 50.1 | 
CC(=O)Nc1ccc2c(CCC3CCN(Cc4ccccc4)CC3)noc2c1 | 2.82 | 
N#Cc1ccc2c(CCC3CCN(Cc4ccccc4)CC3)noc2c1 | 100 | 
O=S(=O)(Nc1ccc2c(CCC3CCN(Cc4ccccc4)CC3)noc2c1)c1ccccc1 | 14.1 | 
O=C1Cc2c(ccc3c(CCC4CCN(Cc5ccccc5)CC4)noc23)N1 | 3.63 | 
O=C1Cc2cc3c(CCC4CCN(Cc5ccccc5)CC4)noc3cc2N1 [ICOPEZIL] | 0.331 | 
